The target of the experiment is T1, human δ802βγ ENaC (Homo sapiens, UniProt P51168+P51170+P51172).
T1 construct: Bioelectric features of full-length human δ802 epithelial sodium channels (ENaC) in Xenopus oocytes; expressed in transfected cells; host or cells: Xenopus laevis oocytes injected with cRNA (pGEM HE vector)
T1 sequence (P51172 1-802): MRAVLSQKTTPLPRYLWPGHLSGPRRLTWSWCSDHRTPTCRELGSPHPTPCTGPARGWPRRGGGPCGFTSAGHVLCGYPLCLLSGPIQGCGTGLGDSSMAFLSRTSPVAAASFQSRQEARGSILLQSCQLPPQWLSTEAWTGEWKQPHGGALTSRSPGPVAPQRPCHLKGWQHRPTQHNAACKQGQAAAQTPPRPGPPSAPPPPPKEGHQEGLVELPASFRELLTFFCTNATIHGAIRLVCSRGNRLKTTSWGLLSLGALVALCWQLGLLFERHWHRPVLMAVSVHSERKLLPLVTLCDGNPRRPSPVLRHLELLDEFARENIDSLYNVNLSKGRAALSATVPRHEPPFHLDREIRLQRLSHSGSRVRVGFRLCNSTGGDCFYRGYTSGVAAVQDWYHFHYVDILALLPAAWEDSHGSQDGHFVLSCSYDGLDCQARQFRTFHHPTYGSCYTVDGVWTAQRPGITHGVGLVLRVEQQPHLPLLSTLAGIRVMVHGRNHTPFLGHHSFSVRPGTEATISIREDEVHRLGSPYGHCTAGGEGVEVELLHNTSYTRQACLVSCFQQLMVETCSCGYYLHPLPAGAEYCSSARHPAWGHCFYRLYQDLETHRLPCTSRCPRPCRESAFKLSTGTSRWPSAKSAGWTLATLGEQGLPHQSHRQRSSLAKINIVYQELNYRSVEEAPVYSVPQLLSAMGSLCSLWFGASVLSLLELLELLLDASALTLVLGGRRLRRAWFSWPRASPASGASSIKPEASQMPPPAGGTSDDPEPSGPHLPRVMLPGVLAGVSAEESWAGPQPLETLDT
T1 sequence (P51168 1-640): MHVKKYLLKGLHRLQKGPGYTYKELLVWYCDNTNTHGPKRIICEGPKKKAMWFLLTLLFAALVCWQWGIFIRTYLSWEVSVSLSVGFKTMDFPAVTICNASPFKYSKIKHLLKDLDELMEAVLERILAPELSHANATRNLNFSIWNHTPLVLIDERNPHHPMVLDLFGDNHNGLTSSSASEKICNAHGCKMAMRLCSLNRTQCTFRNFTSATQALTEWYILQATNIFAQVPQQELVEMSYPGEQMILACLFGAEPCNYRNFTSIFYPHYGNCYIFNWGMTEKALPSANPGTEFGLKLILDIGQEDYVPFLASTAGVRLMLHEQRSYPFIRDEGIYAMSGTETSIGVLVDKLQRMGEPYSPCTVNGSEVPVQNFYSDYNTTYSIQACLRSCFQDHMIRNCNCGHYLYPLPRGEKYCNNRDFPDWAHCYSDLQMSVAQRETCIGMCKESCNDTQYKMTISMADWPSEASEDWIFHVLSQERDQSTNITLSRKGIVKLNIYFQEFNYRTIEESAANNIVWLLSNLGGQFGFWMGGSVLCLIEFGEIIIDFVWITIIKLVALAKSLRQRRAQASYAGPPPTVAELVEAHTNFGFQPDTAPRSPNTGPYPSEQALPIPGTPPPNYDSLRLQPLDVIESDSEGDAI
T1 sequence (P51170 1-649): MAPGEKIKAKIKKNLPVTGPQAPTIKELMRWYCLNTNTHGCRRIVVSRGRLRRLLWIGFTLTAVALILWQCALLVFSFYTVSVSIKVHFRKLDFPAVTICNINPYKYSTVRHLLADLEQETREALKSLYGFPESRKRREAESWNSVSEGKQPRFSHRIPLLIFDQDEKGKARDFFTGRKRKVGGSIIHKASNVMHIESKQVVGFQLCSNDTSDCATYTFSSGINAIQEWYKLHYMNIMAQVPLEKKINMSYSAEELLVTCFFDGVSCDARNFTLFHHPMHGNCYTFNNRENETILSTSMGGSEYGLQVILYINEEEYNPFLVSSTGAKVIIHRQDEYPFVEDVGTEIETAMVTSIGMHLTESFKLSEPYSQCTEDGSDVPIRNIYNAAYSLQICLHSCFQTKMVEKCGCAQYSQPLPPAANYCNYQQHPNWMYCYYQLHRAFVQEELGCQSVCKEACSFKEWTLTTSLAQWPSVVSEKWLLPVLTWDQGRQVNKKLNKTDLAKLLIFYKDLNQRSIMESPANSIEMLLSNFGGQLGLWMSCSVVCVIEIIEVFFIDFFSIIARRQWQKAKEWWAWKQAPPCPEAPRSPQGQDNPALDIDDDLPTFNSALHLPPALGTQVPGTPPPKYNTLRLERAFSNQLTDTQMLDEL
The experiment in a line: Two-electrode voltage clamp of δ802βγ-ENaC expressed in Xenopus oocytes. The experiment is classed as cell-based. The method, then: Cloning, in vitro transcription, and heterologous expression of δ802 ENaC and two-electrode voltage clamping assay. δ802 and other ENaC subunits were generated in human ENaC cDNAs cloned into a pGEM HE vector [4], [76]. cRNAs of human α, β, and γ ENaC were prepared as described previously. The stoichiometry of native ENaC complexes is unclear to date. Based on the studies in the last decade, several models have been proposed for αβγ ENaC channels: 1α1β1γ, 2α1β1γ, 3α3β3γ. Based on the EM structure of human αβγ ENaC [35], the currently acceptable model of human αβγ ENaC complexes is heterotrimeric (1α1β1γ). Thus we microinjected δ802:β:γ in a 1:1:1 subunit ratio. Oocytes were surgically removed from appropriately anesthetized adult female Xenopus laevis (Xenopus Express). Briefly, the ovarian tissue was removed from the frog under anesthesia by tricaine-S (Western Chemicals) through a small incision in the lower abdomen. Ovarian lobes were removed and digested in OR-2 calcium-free medium (in mM: 82.5 NaCl, 2.5 KCl, 1.0 MgCl2, 1.0 Na2HPO4, and 10.0 HEPES, pH 7.5) with the addition of 2 mg/ml collagenase (Roche, Indianapolis). Defolliculated oocytes were injected with ENaC cRNAs into the cytosol (25 ng per oocyte in 50 nl of RNase-free water) and incubated in regular OR-2 medium at 18°C. The two-electrode voltage-clamp technique was used to record whole-cell currents 48 h post injection. Oocytes were impaled with two electrodes filled with 3M KCl, having resistance of 0.5 - 2 MΩ. A TEV-200A voltage-clamp amplifier (Dagan) was used to clamp oocytes with concomitant recording of currents. Two reference electrodes were connected to the bath. The continuously perfused bathing solution was ND-96 medium (in mM: 96.0 NaCl, 1.0 MgCl2, 1.8 CaCl2, 2.5 KCl, and 5.0 HEPES, pH 7.5). Whole-cell currents were recorded as previously reported. Experiments were controlled by pCLAMP 10.7 software (Molecular Devices), and currents at -40 mV, -100 mV, and +80 mV were continuously monitored with data recorded at intervals of 10 sec. Data were sampled at the rate of 200 Hz and filtered at 50 Hz.

The source of these data is article PMC6857051, “Proliferative regulation of alveolar epithelial type 2 progenitor cells by human Scnn1d gene” (Theranostics, 2019).

Where two headings read alike, the source gives them in different places.

On to `N=C(N)NC(=O)c1nc(Cl)c(N)nc1N` [amiloride], for which, for the setting “accumulating doses perfused to oocytes expressing δ802βγ-ENaC, n=17, mean ± s.e.m., SEM, read-out: IC50 value, dose-response curve fitted with the Hill equation”, the IC50 was 1690 ± 300 nM.

Regarding Ac-LRGTLPHPLQRLR-NH2 [α-13 peptide], under “300 μM, -100 mV, n=5”, the “effect on δ802βγ-ENaC activity” value was “slightly elevated”. In addition, the IC50 (oocytes, current at -100 mV, n=3, Chi^2 = 0.77, R^2 = 0.86, legend prints δ802βγ, read-out: IC50, dotted line (for δ802βγ) (Hill equation)) was determined as 40 ± 70 nM.

B1: plasmin: serine protease of the plasmin(ogen) signal pathway for fibrinolysis (protein, UniProt P00747 20-580; P00747 581-810, looked up)
Plasmin heavy chain A: EPLDDYVNTQGASLFSVTKKQLGAGSIEECAAKCEEDEEFTCRAFQYHSKEQQCVIMAENRKSSIIIRMRDVVLFEKKVYLSECKTGNGKNYRGTMSKTKNGITCQKWSSTSPHRPRFSPATHPSEGLEENYCRNPDNDPQGPWCYTTDPEKRYDYCDILECEEECMHCSGENYDGKISKTMSGLECQAWDSQSPHAHGYIPSKFPNKNLKKNYCRNPDRELRPWCFTTDPNKRWELCDIPRCTTPPPSSGPTYQCLKGTGENYRGNVAVTVSGHTCQHWSAQTPHTHNRTPENFPCKNLDENYCRNPDGKRAPWCHTTNSQVRWEYCKIPSCDSSPVSTEQLAPTAPPELTPVVQDCYHGDGQSYRGTSSTTTTGKKCQSWSSMTPHRHQKTPENYPNAGLTMNYCRNPDADKGPWCFTTDPSVRWEYCNLKKCSGTEASVVAPPPVVLLPDVETPSEEDCMFGNGKGYRGKRATTVTGTPCQDWAAQEPHRHSIFTPETNPRAGLEKNYCRNPDGDVGGPWCYTTNPRKLYDYCDVPQCAAPSFDCGKPQVEPKKCPGR
Plasmin light chain B: VVGGCVAHPHSWPWQVSLRTRFGMHFCGGTLISPEWVLTAAHCLEKSPRPSSYKVILGAHQEVNLEPHVQEIEVSRLFLEPTRKDIALLKLSSPAVITDKVIPACLPSPNYVVADRTECFITGWGETQGTFGAGLLKEAQLPVIENKVCNRYEFLNGRVQSTELCAGHLAGGTDSCQGDSGGPLVCFEKDKYILQGVTSWGLGCARPNKPGVYVRVSRFVTWIEGVMRNN
modifications: Plasmin
notes: serine protease of the plasmin(ogen) signal pathway for fibrinolysis
For the molecule B1, the “effect of serine protease incubation on δ802βγ activity” value (oocytes, -100 mV, tc-uPA 10 μg/ml, time course in minutes) is given as “activated the δ802βγ activity in minutes”.
